Experimental data reported in PubChem BioAssay (NCI).
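In this assay, cells in 96-well plates receive the compound at five concentrations for 48 hours. Endpoints are linearly interpolated between the surrounding concentrations. GI50 = concentration required for 50% inhibition of growth. TGI: concentration producing complete growth inhibition.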

Legend:
Assay in all cases: DTP human tumour cell line panel, 48 h
[1] = tested on: SK-MEL-5 melanoma
[2] = tested on: NCI/ADR-RES ovarian
[3] = tested on: HOP-92 NSCLC
[4] = tested on: HCT-15 colon
[5] = tested on: OVCAR-8 ovarian
[6] = tested on: 786-0 renal
[7] = tested on: EKVX NSCLC
[8] = tested on: NCI-H522 lung
[9] = tested on: MOLT-4 leukemia
[10] = tested on: SR leukemia
[11] = tested on: HT29 colon
[12] = tested on: TK-10 renal
[13] = tested on: M14 melanoma
[14] = tested on: COLO 205 colon
[15] = tested on: SK-MEL-28 melanoma
[16] = tested on: CCRF-CEM leukemia
[17] = tested on: OVCAR-3 ovarian
[18] = tested on: A549 NSCLC
[19] = tested on: RPMI-8226 leukemia
[20] = tested on: UACC-257 melanoma
[21] = tested on: K-562 leukemia
[22] = tested on: RXF 393 renal
[23] = tested on: SF-295 CNS
[24] = tested on: OVCAR-5 ovarian
[25] = tested on: SNB-75 CNS
[26] = tested on: UO-31 renal
[27] = tested on: MDA-MB-231 breast
[28] = tested on: OVCAR-4 ovarian
[29] = tested on: SF-539 CNS
[30] = tested on: SK-MEL-2 melanoma
[31] = tested on: LOX IMVI melanoma
[32] = tested on: SW-620 colon
[33] = tested on: NCI-H460 lung
[34] = tested on: T-47D breast
[35] = tested on: DU-145 prostate
[36] = tested on: UACC-62 melanoma
[37] = tested on: HCT-116 colon
[38] = tested on: HL-60(TB) leukemia
[39] = tested on: PC-3 prostate
[40] = tested on: BT-549 breast
[41] = tested on: NCI-H226 lung
[42] = tested on: IGROV1 ovarian
[43] = tested on: A498 renal
[44] = tested on: HCC-2998 colon
[45] = tested on: SN12C renal
[46] = tested on: SK-OV-3 ovarian
[47] = tested on: NCI-H23 lung
[48] = tested on: ACHN renal
[49] = tested on: MCF7 breast
[50] = tested on: MALME-3M melanoma
[51] = tested on: SF-268 CNS
[52] = tested on: HS 578T breast
[53] = tested on: U251 CNS
[54] = tested on: MDA-MB-435
[55] = tested on: SNB-19 CNS
[56] = tested on: HOP-62 NSCLC
[57] = tested on: KM12 colon
[58] = tested on: CAKI-1 renal

For `CC(C)c1ccc(COCc2cc(CN3CCCC3)c(O)c3ncccc23)cc1`, the GI50 [1] was 0.302 µM, the TGI [1] was 1.15 µM and the GI50 [2] was 0.0508 µM. The TGI [2] was 0.84 µM, the GI50 [3] was 1.67 µM and the TGI [3] was 11.7 µM. It also gave a GI50 [4] of 0.0655 µM, a TGI [4] of 2.07 µM and a GI50 [5] of 0.43 µM. For the same molecule, the TGI [5] was 2.15 µM, the GI50 [6] was 0.468 µM and the TGI [6] was 3.83 µM. It also gave a GI50 [7] of 0.746 µM, a TGI [7] of 11.9 µM and a GI50 [8] of 0.287 µM. For the same molecule, the TGI [8] was 1.11 µM, the GI50 [9] was 0.378 µM and the TGI [9] was 2.13 µM. The GI50 [10] was 0.323 µM, the TGI [10] was 2.08 µM and the GI50 [11] was 2.64 µM. For the same molecule, the TGI [11] was 6.83 µM, the GI50 [12] was 0.409 µM and the TGI [12] was 12.6 µM. For the same molecule, the GI50 [13] was 0.351 µM, the TGI [13] was 1.99 µM and the GI50 [14] was 3.34 µM. For the same molecule, the TGI [14] was 11.9 µM, the GI50 [15] was 0.768 µM and the TGI [15] was 10.2 µM. The GI50 [16] was 0.398 µM, the TGI [16] was 3.91 µM and the GI50 [17] was 0.403 µM. It also gave a TGI [17] of 1.87 µM, a GI50 [18] of 0.645 µM and a TGI [18] of 8.31 µM. It also gave a GI50 [19] of 0.601 µM, a TGI [19] of 2.72 µM and a GI50 [20] of 0.783 µM. For the same molecule, the TGI [20] was 3.93 µM, the GI50 [21] was 0.374 µM and the TGI [21] was 2.44 µM. The GI50 [22] was 0.878 µM, the TGI [22] was 3.45 µM and the GI50 [23] was 1.18 µM. For the same molecule, the TGI [23] was 6.26 µM, the GI50 [24] was 1.43 µM and the TGI [24] was 13.5 µM. It also gave a GI50 [25] of 1.19 µM, a TGI [25] of 11.5 µM and a GI50 [26] of 0.127 µM. It also gave a TGI [26] of 2.14 µM, a GI50 [27] of 0.774 µM and a TGI [27] of 3.27 µM. For the same molecule, the GI50 [28] was 0.32 µM, the TGI [28] was 1.41 µM and the GI50 [29] was 0.42 µM. The TGI [29] was 2.04 µM, the GI50 [30] was 1.61 µM and the TGI [30] was 4.53 µM. The GI50 [31] was 0.334 µM, the TGI [31] was 1.4 µM and the GI50 [32] was 0.471 µM. It also gave a TGI [32] of 2.38 µM, a GI50 [33] of 0.395 µM and a TGI [33] of 1.47 µM. The GI50 [34] was 0.398 µM, the TGI [34] was 4.37 µM and the GI50 [35] was 0.77 µM. For the same molecule, the TGI [35] was 9.72 µM, the GI50 [36] was 0.318 µM and the TGI [36] was 1.62 µM. For the same molecule, the GI50 [37] was 0.348 µM, the TGI [37] was 1.47 µM and the GI50 [38] was 0.314 µM. The TGI [38] was 1.4 µM, the GI50 [39] was 0.657 µM and the TGI [39] was 11.2 µM. It also gave a GI50 [40] of 1.45 µM, a TGI [40] of 8.57 µM and a GI50 [41] of 0.912 µM. It also gave a TGI [41] of 3.19 µM, a GI50 [42] of 0.493 µM and a TGI [42] of 4.36 µM. The GI50 [43] was 0.778 µM, the TGI [43] was 3.81 µM and the GI50 [44] was 1.58 µM. For the same molecule, the TGI [44] was 6.03 µM, the GI50 [45] was 0.825 µM and the TGI [45] was 4.6 µM. The GI50 [46] was 0.639 µM, the TGI [46] was 4.53 µM and the GI50 [47] was 0.708 µM. For the same molecule, the TGI [47] was 3.13 µM, the GI50 [48] was 0.149 µM and the TGI [48] was 5.44 µM. It also gave a GI50 [49] of 0.365 µM, a TGI [49] of 1.52 µM and a GI50 [50] of 1.45 µM. It also gave a TGI [50] of 8.12 µM, a GI50 [51] of 0.673 µM and a TGI [51] of 7.98 µM. It also gave a GI50 [52] of 1.72 µM, a TGI [52] of 7.54 µM and a GI50 [53] of 0.466 µM. It also gave a TGI [53] of 2.45 µM, a GI50 [54] of 0.855 µM and a TGI [54] of 11.2 µM. The GI50 [55] was 0.772 µM, the TGI [55] was 5.7 µM and the GI50 [56] was 0.367 µM. It also gave a TGI [56] of 5.04 µM, a GI50 [57] of 0.534 µM and a TGI [57] of 3.13 µM. The GI50 [58] was 0.146 µM and the TGI [58] was 4.44 µM.
